Tests used:
Calu-3 cell layers = experiment: FD4 permeability and TEER of polarised Calu-3 cell layers; assay type: cell-based, human
[1] = system: diabetic rat model with increased retinal permeability; experiment: Topical eye administration in diabetic rat model with increased vascular permeability; assay type: in vivo, Norway Brown rats; settings: topical co-application vs Bevacizumab alone
Caco-2 cell layers = assay type: cell-based, human; settings: 3OC12-HSL 200 μM
Procedure: (§1) FIG. 3: Macromolecular therapeutics transported across Caco-2 cell layers in the absence (dashed line) and presence (line) of 3OC12-HSL transported into the basolateral chamber over a period of five hours. Permeability experiments were initiated by applying 0.5 ml of the test solutions (250 μg/ml Aflibercept/Bevacizumab/or Doxorubicin diluted in HBSS/HEPES) to the apical side of the cells (donor compartment of the Transwell) with or without 3OC12-HSL (200 μM). Drug permeability was determined by sampling the basolateral solution at regular time intervals. Data points are expressed as means±SEM, derived from three replicates in triplicate. p values of <0.05 were considered statistically significant. *, ** and *** denote p<0.05, p<0.01 and p<0.001, respectively.
Calu-3 cells obtained from American Type Culture Collection, USA were cultured using Dulbecco's Modified Eagle Medium (DMEM) supplemented with penicillin (100 U/mL), streptomycin (0.1 mg/mL), amphotericin (0.25 μg/mL), non-essential amino acids (NEM, 1%) and Fetal Bovine Serum (FBS, 10% v/v, Sigma-Aldrich, UK). The human-derived RPE cell line ARPE-19 was obtained from American Type Culture Collection. […]
(§2) Three polarised epithelial in-vitro tissue models, including lung epithelium (Calu-3), retinal pigment epithelium (ARPE-19) and intestinal epithelial (Caco-2) were used to study the efficiency of 200 μM 3OC12-HSL as a paracellular permeability enhancer for three different drugs: bevacizumab, aflibercept and doxorubicin (applied concentrations 250 μg/mL). The amount of drugs transported was determined via the conversion of fluorescence intensity to amount (μg or ng), using calibration curves constructed via serial standard dilutions. […]
(§3) Permeability experiments were initiated by applying 0.5 mL of the test solutions to the apical side of the cells (donor compartment of the Transwell®). […] Drug permeability was determined by sampling the basolateral solution at regular time intervals. […]

[2] = system: human primary lung epithelium; experiment: Human primary lung epithelium, air-liquid interface culture: TEER, FD4 and mAb delivery; assay type: cell-based
ARPE-19 cell layers = experiment: Transwell drug transport across ARPE-19 cell layers with or without 3OC12-HSL; assay type: cell-based, human; settings: 3OC12-HSL 200 μM
Procedure: as §1, with “1:” for “3:”, “ARPE-19” for “Caco-2”, “absence” for “absence (dashed line)”, “presence” for “presence (line)”
Calu-3 cells obtained from American Type Culture Collection, USA were cultured using Dulbecco's Modified Eagle Medium (DMEM) supplemented with penicillin (100 U/mL), streptomycin (0.1 mg/mL), amphotericin (0.25 μg/mL), non-essential amino acids (NEM, 1%) and Fetal Bovine Serum (FBS, 10% v/v, Sigma-Aldrich, UK). The human-derived RPE cell line ARPE-19 was obtained from American Type Culture Collection. Cells were grown in Dulbecco's Modified Eagle Medium: F12 (1:1; Gibco, Invitrogen, Carlsbad, CA), including 10% inactivated fetal bovine serum, 100 units/mL penicillin, 100 μg/mL streptomycin, and 2 mM L-glutamine (Sigma-Aldrich). Caco-2 cells were grown in complete culture medium (DMEM supplemented with 17% FBS and 1% antibiotic-antimycotic solution). All cells were kept in a water-jacketed incubator (model 3546, Forma Scientific, Inc., Marietta, OH, USA) maintained at 37° C. and an atmosphere of humidified air with 5% CO2. Medium was replaced every other day until cells reached the 80-90% confluence desired for re-plating or culturing mature, polarised barrier models.
When confluent, cells were seeded on Transwell® filters (12 mm diameter, 0.4 μm pore size; Corning Life Sciences, Holland) at 10^5 cells/cm^2. […]
as §2, §3

ZO-1 = ZO-1 immunostaining and confocal microscopy of Calu-3 cell layers; assay type: cell-based, human; settings: 200 μM, one hour, vs vehicle 0.15% DMSO
Procedure: To visualise the effect of 3OC12-HSL and C7 PQS on tight junction integrity in Calu-3 cell layers, ZO-1, immunostaining and confocal microscopy was performed on cell layers treated by 200 μM 3OC12-HSL and C7 PQS and control (0.15% DMSO in HBSS) for one hour. Confluent cell monolayers were washed with PBS and fixed in 4% paraformaldehyde in PBS for approximately 10 min at room temperature. Cells were then washed 3 times with PBS and permeabilised by incubating with Triton X-100 (0.1% v/v in PBS) for 10 min. Cells were then washed with PBS, followed by the application of 1% BSA/PBS for approximately 1 hour. Thereafter, BSA/PBS solution was aspirated and replaced with mouse, anti-human ZO-1 (primary) antibody, diluted in 1% BSA/PBS to a final concentration of 100 μg/ml. Cell samples were incubated with the primary antibody for 2 hours. The primary antibody solution was then removed and cells washed with PBS (5 times). FITC-labelled goat, anti-mouse (secondary) antibody, diluted according to manufacturer's instructions in 1% BSA/PBS was then applied to the cells for 1 hour. The secondary antibody solution was then aspirated and cells washed with PBS three times. […]

[3] = doxorubicin 250 μg/ml, after 5 hours

SMILES: CCCCCCCCCC(=O)CC(=O)N[C@H]1CCOC1=O [Agent 3OC12-HSL, N-(3-oxododecanoyl) homoserine lactone]
- paracellular passage / flux of FD4 from apical to basolateral chamber (Calu-3 cell layers; 200 μM (3OC12-HSL: 200 μM or 1 μM)): increased paracellular passage of FD4
- effect on TEER compared to vehicle only (Calu-3 cell layers; 200 μM or 1 μM in 0.15% DMSO in HBSS, p<0.001): reduced TEER significantly
- time after which TEER started increasing / cell layer integrity began to recover (Calu-3 cell layers; during exposure): 4 h
- TEER after 7 hours (Calu-3 cell layers; recovery during exposure): 520+/−20 Ω·cm^2
- time at which flux of FD4 peaked (Calu-3 cell layers; then continued increasing slowly for four hours): 30 min
- delivery of Bevacizumab into the posterior chamber of rat eyes (confocal images) [1]: significantly enhance
- enhancement of aflibercept transport by 3OC12-HSL (Caco-2 cell layers; aflibercept 250 μg/ml): 11 fold
- enhancement of bevacizumab transport by 3OC12-HSL (Caco-2 cell layers; bevacizumab 250 μg/ml): 8 fold
- enhancement of doxorubicin transport by 3OC12-HSL (Caco-2 cell layers; [3]): 19 fold
- TEER (electrical resistance) upon agent exposure [2]: temporarily reduced
- mAb (Mepolizumab) delivery upon agent exposure [2]: increased
- increase of bevacizumab permeability by 3OC12-HSL (ARPE-19 cell layers; bevacizumab 250 μg/ml, at 60 minutes of exposure): 2.5 fold
- enhancement of doxorubicin transport by 3OC12-HSL (ARPE-19 cell layers; [3]): 6 fold
- ZO-1 distribution at tight junctions (ZO-1): considerable dislocation of ZO-1 proteins
